In patent US20060090219A1, “Methods for producing plants with improved growth under nitrogen-limited conditions” (priority 2003, published 2006):

Key:
[1] = system: potato leaf tissue; details: 24 hours after foliar application, compared with spreader and urea groups, n=6
Experimental: (§1) Three foliar application groups were prepared—a spreader group (Approach B1, Kao), a urea group (spreader+0.87 mM urea), and a proline group (spreader+1.75 mM proline), and about 20 ml per plant was sprayed once a week beginning about a month after planting (immediately before flowering). The leaves were sprayed 6 times (6 weeks), and harvested 3 months after planting.

[2] = system: potatoes (May Queen cultivar); experiment: Yield survey of potatoes after foliar application of proline under low-nitrogen conditions; format: in vivo, potato; details: for Total tuber weight (per plant) / Total number of tubers (per plant): foliar spray 6 times at one-week intervals, harvest 3 months after planting, n = 6; for Total tuber weight (per plant): low-nitrogen soil (total nitrogen 0.6 g); for Total number of tubers (per plant): low-nitrogen soil; for Ratio of total number of tubers to spreader group / Ratio of total tuber weight to spreader group: same test, spreader group = 1.00
Experimental: The effects of foliar application of a proline solution on growth and yield were investigating using potatoes (May Queen cultivar). Potato tubers were placed in No. 7 pots containing 1.5 kg of Power Soil (Kureha Chemical). Under normal cultivation conditions, about 5 g of nitrogen fertilizer is used as base fertilizer; while in this cultivation test, cultivation was under low-nitrogen conditions.
as §1
Aqueous solutions of a spreader, urea and proline were applied 6 times at one-week intervals to the leaf surfaces of potato plants 1 month after planting. These were cultivated for 3 months after planting, with 6 pots in each group and one stalk per plant. The tubers were harvested from each pot, and the tuber weight and number of tubers per pot was measured.

## O=C(O)[C@@H]1CCCN1 [Proline, proline]
[1]
  2-OG content in leaf tissue: significantly greater
[2]
  Total tuber weight (per plant): 158.4 ± 18.0 g
  Total number of tubers (per plant): 8.2 ± 1.0
  Ratio of total number of tubers to spreader group: 1.00
  Ratio of total tuber weight to spreader group: 1.10
[2]; listed as proline
  Total tuber weight (per plant): 158.4 g
  Total number of tubers (per plant): 8.2
  Ratio of total tuber weight to spreader group: 1.1

## NC(N)=O [Urea, urea, reference compound]
[2]
  Total tuber weight (per plant): 140.1 ± 10.6 g
  Total number of tubers (per plant): 6.8 ± 1.6
  Ratio of total number of tubers to spreader group: 0.83
  Ratio of total tuber weight to spreader group: 0.96
[2]; listed as urea
  Total tuber weight (per plant): 140.1 g
  Total number of tubers (per plant): 6.8
